This note sets out measurements from patent publication US12421193B2, “GPR52 modulators and methods of use” (Neurocrine Biosciences, Inc., priority 2020, dated 2025).

Counter-ions that a name gives are not always drawn.

In the assay the target is T1, recombinant human GPR52 (Homo sapiens, UniProt Q9Y2T5).
T1 construct: expressed in transfected cells
T1 sequence (Q9Y2T5 whole entry): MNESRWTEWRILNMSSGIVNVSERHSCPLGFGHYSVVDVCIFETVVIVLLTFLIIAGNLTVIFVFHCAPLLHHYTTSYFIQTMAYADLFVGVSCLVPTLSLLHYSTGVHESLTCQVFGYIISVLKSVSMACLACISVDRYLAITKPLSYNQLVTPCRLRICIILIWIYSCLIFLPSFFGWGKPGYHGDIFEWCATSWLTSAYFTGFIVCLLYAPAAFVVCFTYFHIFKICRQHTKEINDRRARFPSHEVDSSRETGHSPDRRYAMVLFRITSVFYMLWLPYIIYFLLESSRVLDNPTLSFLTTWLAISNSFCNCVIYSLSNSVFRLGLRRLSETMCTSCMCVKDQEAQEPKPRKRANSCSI
Description: TR-FRET cAMP assay (LANCE Ultra cAMP Kit), GPR52 activity. It counts as cell-based. The settings on record: Flp-In-CHO cells stably expressing recombinant human GPR52; cAMP production, normalized to the positive control. Here is the method:
TR-FRET cAMP assays were performed using commercially available assay kits (LANCE™ Ultra cAMP Kit). Controls and compounds were solubilized in DMSO using ½ log dilution to generate duplicate 10-point dose response curves in 384-well polypropylene compound plates. Sixty nanoliters of the diluted compounds were transferred into 384-well NBS assay plates and further diluted to 1× with the addition of 2000 cells per well. Flp-In™—CHO cells that stably express recombinant human GPR52.
Cells were harvested with cell stripper and resuspended in Stimulation Buffer (5 mM HEPES, 0.1% bovine serum albumin (BSA), 0.5 mM IBMX, pH 7.4). After thirty minutes incubation at room temperature, detection reagents were added to each well. Plates were then incubated for 30 minutes at room temperature. The LANCE™ Ultra cAMP assay uses time-resolved fluorescence resonance energy transfer (TR-FRET) to detect cAMVP production; this signal was quantified using a Pherastar multi-mode plate reader.
Dose-response curves were generated from the fluorescence counts normalized to the positive control. E EC50 values were obtained using a nonlinear regression curve-fitting program.
With `CC(=O)c1ccc(OCc2cc(-c3ccc(C(N)=O)c(C)c3)ccn2)cc1` [Example 86, 4-[2-(4-acetylphenoxymethyl)pyridin-4-yl]-2-methylbenzamide hydrochloride], the EC50 was less than 25 nM. As to `Cc1cc(-c2cc(COc3ccc(C4CC4)c(F)c3)ccn2)ccc1C(N)=O` [Example 71, 4-[4-(4-cyclopropyl-3-fluorophenoxymethyl)pyridin-2-yl]-2-methylbenzamide], the 50% effective concentration (EC50) is less than 25 nM.

In the case of `Cc1cc(-c2cc(COc3cc(F)cc(C4CC4)c3)ccn2)ccc1C(N)=O` [Example 70, 4-[4-(3-cyclopropyl-5-fluorophenoxymethyl)pyridin-2-yl]-2-methylbenzamide], the EC50 is less than 25 nM. Regarding `Cc1cc(-c2cc(COc3ccc(C#N)c(F)c3)ccn2)ccc1C(N)=O` [Example 4, 4-[4-(4-cyano-3-fluorophenoxymethyl)pyridin-2-yl]-2-methylbenzamide hydrochloride], the EC50 was 25 to 100 nM. With `Cc1cc(-c2cc(COc3ccc4c(c3)CCO4)ccn2)ccc1C(N)=O` [Example 64, 4-{4-[(2,3-dihydro-1-benzofuran-5-yloxy)methyl]pyridin-2-yl}-2-methylbenzamide], the EC50 was less than 25 nM. With `Cc1cc(-c2cc(COc3cc(F)c(C#N)c(F)c3)ccn2)ccc1C(N)=O` [Example 10, 4-[4-(4-cyano-3,5-difluorophenoxymethyl)pyridin-2-yl]-2-methylbenzamide] the figure was 25 to 100 nM; with `Cc1cc(-c2cc(COc3cncc(C#N)c3)ccn2)ccc1C(N)=O` [Example 75, 4-(4-{[(5-cyanopyridin-3-yl)oxy]methyl}pyridin-2-yl)-2-methylbenzamide], 101 to 1000 nM. With `COc1cccc(OCc2ccnc(-c3ccc(C(N)=O)c(C)c3)c2)c1` [Example 39, 4-[4-(3-methoxyphenoxymethyl)pyridin-2-yl]-2-methylbenzamide] the figure was 101 to 1000 nM. In the case of `Cc1cc(-c2cccc(COc3cccc(C(F)(F)F)c3)n2)ccc1C(N)=O` [Example 102, 4-{6-[3-(trifluoromethyl)phenoxymethyl]pyridin-2-yl}-2-methylbenzamide], the EC50 was more than 1000 nM. Consider `Cc1cc(-c2ccnc(COc3ccc(C#N)c(F)c3F)c2)ccc1C(N)=O` [Example 84, 4-[2-(4-cyano-2,3-difluorophenoxymethyl)pyridin-4-yl]-2-methylbenzamide], for which the concentration for a half-maximal effect (EC50) was in the range of 101 to 1000 nM.

As for `Cc1cc(-c2cc(COc3ccc(C#N)c(F)c3)ccn2)ccc1C(=O)NCCO` [Example 79, 4-[4-(4-cyano-3-fluorophenoxymethyl)pyridin-2-yl]-N-(2-hydroxyethyl)-2-methylbenzamide], the EC50 lay in the range of 101 to 1000 nM. Take `COc1ccc(OCc2cncc(-c3ccc(C(N)=O)c(C)c3)c2)cc1` [Example 98, 4-[5-(4-methoxyphenoxymethyl)pyridin-3-yl]-2-methylbenzamide]: the EC50 was 25 to 100 nM. To `Cc1cc(-c2cc(COc3ccc(Cl)c(C#N)c3)ccn2)ccc1C(N)=O` [Example 49, 4-[4-(4-chloro-3-cyanophenoxymethyl)pyridin-2-yl]-2-methylbenzamide] belongs 25 to 100 nM; to `COc1ccc(OCc2ccnc(-c3ccc(C(N)=O)c(C)c3)c2)cc1F` [Example 62, 4-[4-(3-fluoro-4-methoxyphenoxymethyl)pyridin-2-yl]-2-methylbenzamide], less than 25 nM. As for `Cc1cc(OCc2ccnc(-c3ccc(C(N)=O)c(C)c3)c2)ccc1Cl` [Example 28, 4-[4-(4-chloro-3-methylphenoxymethyl)pyridin-2-yl]-2-methylbenzamide], the EC50 was 101 to 1000 nM. With `CCCc1ccccc1OCc1ccnc(-c2ccc(C(N)=O)c(C)c2)c1` [Example 23, 4-[4-(2-propylphenoxymethyl)pyridin-2-yl]-2-methyl benzamide] the figure was less than 25 nM; with `COc1ccc(OCc2cncc(-c3ccc(C(N)=O)c(C)c3)c2)cc1OC` [Example 96, 4-[5-(3,4-dimethoxyphenoxymethyl)pyridin-3-yl]-2-methylbenzamide], more than 1000 nM.
